Results as given in patent EP0908457B1, “3-(1,2-benzisothiazol- and isoxazol-5-Y1)-2,4(1H,3H)-pyrimidinedione or thione and 3-(1,2-benzisothiazol- and isoxazol-5-y1)-4(3H)-pyrimidinone or thione herbicidal agents” (BASF AKTIENGESELLSCHAFT, priority 1997, dated 1999).

Tests used:
[1] = system: Echinochloa oryzoides (Ard.) Fritsch.; experiment: Preemergence weed control under flooded paddy conditions, ECHORC (Watergrass (Calif.)); format: in vivo; conditions: flooded paddy; for herbicidal effect rating, ECHORC / ECHORC herbicidal effect rating / ECHORC herbicidal rating: rated three to four weeks after treatment; for ECHORC: herbicidal effect rating 0-9, three to four weeks after treatment; for herbicidal effect rating, ECHORC: meaning of each grade not given here
[2] = system: Cyperus iria; experiment: Preemergence weed control under flooded paddy conditions, CYPIR (Rice Flatsedge); format: in vivo; conditions: flooded paddy; for herbicidal effect rating, CYPIR / CYPIR herbicidal effect rating / CYPIR herbicidal rating: rated three to four weeks after treatment; for CYPIR: herbicidal effect rating 0-9, three to four weeks after treatment; for herbicidal effect rating, CYPIR: meaning of each grade not given here
[3] = system: Cyperus serotinus, Rottb.; experiment: Preemergence weed control under flooded paddy conditions, CYPSE (Flatsedge); format: in vivo; conditions: for herbicidal effect rating, CYPSE / CYPSE herbicidal effect rating / CYPSE herbicidal rating: rated three to four weeks after treatment; for CYPSE: herbicidal effect rating 0-9, three to four weeks after treatment; for herbicidal effect rating, CYPSE: meaning of each grade not given here
[4] = system: Monochoria vaginalis, Presl.; experiment: Preemergence weed control under flooded paddy conditions, MOOVA (Monochoria); format: in vivo; conditions: flooded paddy; for herbicidal effect rating, MOOVA / MOOVA herbicidal effect rating / MOOVA herbicidal rating: rated three to four weeks after treatment; for MOOVA: herbicidal effect rating 0-9, three to four weeks after treatment; for herbicidal effect rating, MOOVA: meaning of each grade not given here
[5] = system: Sagittaria pygmaea, L.; experiment: Preemergence weed control under flooded paddy conditions, SAGPY (Arrowhead (Pygmaea)); format: in vivo; conditions: flooded paddy; for herbicidal effect rating, SAGPY / SAGPY herbicidal effect rating / SAGPY herbicidal rating: rated three to four weeks after treatment; for SAGPY: herbicidal effect rating 0-9, three to four weeks after treatment; for herbicidal effect rating, SAGPY: meaning of each grade not given here
[6] = system: Oryza sativa, (L.) Tebonnet; experiment: Rice tolerance to post-transplant applications under flooded paddy conditions (Example 187), ORYSAT (Rice, Tebonnet); conditions: for herbicidal effect rating ORYSAT / herbicidal effect rating, ORYSAT (rice tolerance) / ORYSAT herbicidal effect rating / ORYSAT herbicidal rating (rice tolerance): rated three to four weeks after treatment; for ORYSAT: herbicidal effect rating 0-9, three to four weeks after treatment; for herbicidal effect rating ORYSAT: meaning of each grade not given here
[7] = Rate 0.0320 kg/ha, preemergence
[8] = Rate 0.0620 kg/ha, preemergence
[9] = Rate 0.1250 kg/ha, preemergence
[10] = Rate 0.2500 kg/ha, preemergence
[11] = 0.0313 kg/ha, preemergence weeds
[12] = 0.0625 kg/ha, preemergence weeds
[13] = 0.1250 kg/ha, preemergence weeds
[14] = 0.2500 kg/ha, preemergence weeds
[15] = 0.0320 kg/ha, preemergence weeds
[16] = 0.0620 kg/ha, preemergence weeds

Cn1c(C(F)(F)F)cc(=O)n(-c2ccc3snc(C(=O)NS(=O)(=O)c4ccccc4)c3c2)c1=O [Example 352, 1,2-Benzisothiazole-3-carboxamide, 5-[3,6-dihydro-3-methyl-2,6-dioxo-4-(trifluoromethyl)-1(2H)-pyrimidinyl]-N-(phenylsulfonyl)-]
herbicidal effect rating, ECHORC [1, 7]: 2.5 | herbicidal effect rating, ECHORC [1, 8]: 4.0 | herbicidal effect rating, ECHORC [1, 9]: 6.5 | herbicidal effect rating, ECHORC [1, 10]: 9.0 | herbicidal effect rating, CYPIR [2, 7]: 2.0 | herbicidal effect rating, CYPIR [2, 8]: 6.5 | herbicidal effect rating, CYPIR [2, 9]: 7.5 | herbicidal effect rating, CYPIR [2, 10]: 9.0 | herbicidal effect rating, CYPSE [3, 7]: 0.0 | herbicidal effect rating, CYPSE [3, 8]: 0.0 | herbicidal effect rating, CYPSE [3, 9]: 1.0 | herbicidal effect rating, CYPSE [3, 10]: 0.0 | herbicidal effect rating, MOOVA [4, 7]: 6.0 | herbicidal effect rating, MOOVA [4, 8]: 9.0 | herbicidal effect rating, MOOVA [4, 9]: 9.0 | herbicidal effect rating, MOOVA [4, 10]: 9.0 | herbicidal effect rating, SAGPY [5, 7]: 2.5 | herbicidal effect rating, SAGPY [5, 8]: 5.0 | herbicidal effect rating, SAGPY [5, 9]: 9.0 | herbicidal effect rating, SAGPY [5, 10]: 9.0 | herbicidal effect rating ORYSAT ([6]; Rate 0.0320 kg/ha): 0.5 | herbicidal effect rating ORYSAT ([6]; Rate 0.0620 kg/ha): 1.0 | herbicidal effect rating ORYSAT ([6]; Rate 0.1250 kg/ha): 2.5 | herbicidal effect rating ORYSAT ([6]; Rate 0.2500 kg/ha): 3.0

CCN(CC)c1nsc2ccc(-n3c(=O)cc(C(F)(F)F)n(C)c3=O)cc12 [Example 118, 3-[3-(Diethylamino)-1,2-benzisothiazol-5-yl]-1-methyl-6-(trifluoromethyl)-2,4(1H,3H)-pyrimidinedione]
herbicidal effect rating, ECHORC [1, 11]: 0.0 | herbicidal effect rating, ECHORC [1, 12]: 0.0 | herbicidal effect rating, ECHORC [1, 13]: 0.0 | herbicidal effect rating, ECHORC [1, 14]: 0.0 | herbicidal effect rating, CYPIR [2, 11]: 0.0 | herbicidal effect rating, CYPIR [2, 12]: 0.0 | herbicidal effect rating, CYPIR [2, 13]: 0.0 | herbicidal effect rating, CYPIR [2, 14]: 0.0 | herbicidal effect rating, CYPSE [3, 11]: 0.0 | herbicidal effect rating, CYPSE [3, 12]: 0.0 | herbicidal effect rating, CYPSE [3, 13]: 0.0 | herbicidal effect rating, CYPSE [3, 14]: 0.0 | herbicidal effect rating, MOOVA [4, 11]: 0.0 | herbicidal effect rating, MOOVA [4, 12]: 0.0 | herbicidal effect rating, MOOVA [4, 13]: 0.0 | herbicidal effect rating, MOOVA [4, 14]: 0.0 | herbicidal effect rating, SAGPY [5, 11]: 0.0 | herbicidal effect rating, SAGPY [5, 12]: 0.0 | herbicidal effect rating, SAGPY [5, 13]: 0.0 | herbicidal effect rating, SAGPY [5, 14]: 0.0 | herbicidal effect rating, ORYSAT (rice tolerance) ([6]; 0.0313 kg/ha): 0.0 | herbicidal effect rating, ORYSAT (rice tolerance) ([6]; 0.0625 kg/ha): 0.0 | herbicidal effect rating, ORYSAT (rice tolerance) ([6]; 0.1250 kg/ha): 0.0 | herbicidal effect rating, ORYSAT (rice tolerance) ([6]; 0.2500 kg/ha): 0.0

COCCOCCOC(=O)c1nsc2ccc(-n3c(=O)cc(C(F)(F)F)n(C)c3=O)cc12 [Example 389, 1,2-Benzisothiazole-3-carboxylic acid, 5-[3,6-dihydro-3-methyl-2,6-dioxo-4-(trifluoromethyl)-1(2H)-pyrimidinyl]-, 2-(2-methoxyethoxy)ethyl ester]
herbicidal effect rating, ECHORC [1, 7]: 3.0 | herbicidal effect rating, ECHORC [1, 8]: 4.0 | herbicidal effect rating, ECHORC [1, 9]: 4.0 | herbicidal effect rating, ECHORC [1, 10]: 7.0 | herbicidal effect rating, CYPIR [2, 7]: 5.0 | herbicidal effect rating, CYPIR [2, 8]: 5.0 | herbicidal effect rating, CYPIR [2, 9]: 7.0 | herbicidal effect rating, CYPIR [2, 10]: 9.0 | herbicidal effect rating, CYPSE [3, 7]: 0.0 | herbicidal effect rating, CYPSE [3, 9]: 7.0 | herbicidal effect rating, CYPSE [3, 10]: 8.0 | herbicidal effect rating, MOOVA [4, 7]: 7.0 | herbicidal effect rating, MOOVA [4, 8]: 9.0 | herbicidal effect rating, MOOVA [4, 9]: 9.0 | herbicidal effect rating, MOOVA [4, 10]: 9.0 | herbicidal effect rating, SAGPY [5, 7]: 3.0 | herbicidal effect rating, SAGPY [5, 8]: 4.0 | herbicidal effect rating, SAGPY [5, 9]: 7.0 | herbicidal effect rating, SAGPY [5, 10]: 9.0 | herbicidal effect rating ORYSAT ([6]; Rate 0.0320 kg/ha): 3.0 | herbicidal effect rating ORYSAT ([6]; Rate 0.0620 kg/ha): 4.0 | herbicidal effect rating ORYSAT ([6]; Rate 0.1250 kg/ha): 4.0 | herbicidal effect rating ORYSAT ([6]; Rate 0.2500 kg/ha): 5.0

Cn1c(C(F)(F)F)cc(=O)n(-c2ccc3snc(C=C(Cl)Cl)c3c2)c1=O [Example 287, 2,4(1H,3H)-Pyrimidinedione, 3-[3-(2,2-dichlorovinyl)-1,2-benzisothiazol-5-yl]-1-methyl-6-(trifluoromethyl)-]
ECHORC herbicidal effect rating [1, 7]: 0.0 | ECHORC herbicidal effect rating [1, 8]: 2.0 | ECHORC herbicidal effect rating [1, 9]: 5.0 | ECHORC herbicidal effect rating [1, 10]: 7.0 | CYPIR herbicidal effect rating [2, 7]: 0.0 | CYPIR herbicidal effect rating [2, 8]: 9.0 | CYPIR herbicidal effect rating [2, 9]: 9.0 | CYPIR herbicidal effect rating [2, 10]: 9.0 | CYPSE herbicidal effect rating [3, 7]: 0.0 | CYPSE herbicidal effect rating [3, 8]: 0.0 | CYPSE herbicidal effect rating [3, 9]: 0.0 | CYPSE herbicidal effect rating [3, 10]: 4.0 | MOOVA herbicidal effect rating [4, 7]: 9.0 | MOOVA herbicidal effect rating [4, 8]: 9.0 | MOOVA herbicidal effect rating [4, 9]: 9.0 | MOOVA herbicidal effect rating [4, 10]: 9.0 | SAGPY herbicidal effect rating [5, 7]: 0.0 | SAGPY herbicidal effect rating [5, 8]: 0.0 | SAGPY herbicidal effect rating [5, 9]: 0.0 | SAGPY herbicidal effect rating [5, 10]: 0.0 | ORYSAT herbicidal effect rating ([6]; Rate 0.0320 kg/ha): 0.0 | ORYSAT herbicidal effect rating ([6]; Rate 0.0620 kg/ha): 3.0 | ORYSAT herbicidal effect rating ([6]; Rate 0.1250 kg/ha): 3.0 | ORYSAT herbicidal effect rating ([6]; Rate 0.2500 kg/ha): 5.0

COC(=O)C(C)Oc1ccc(I)cc1-c1nsc2ccc(-n3c(=O)cc(C(F)(F)F)n(C)c3=O)cc12 (stereo not drawn) [Example 460, Propionic acid, 2-{2-{5-[3,6-dihydro-3-methyl-2,6-dioxo-4-(trifluoromethyl)-1(2H)-pyrimidinyl]-1,2-benzisothiazol-3-yl}-4-iodophenoxy}-, methyl ester]
ECHORC herbicidal rating ([1]; 0.0320 kg/ha, preemergence): 6.0 | ECHORC herbicidal rating ([1]; 0.0620 kg/ha, preemergence): 7.0 | ECHORC herbicidal rating ([1]; 0.1250 kg/ha, preemergence): 9.0 | ECHORC herbicidal rating ([1]; 0.2500 kg/ha, preemergence): 9.0 | CYPIR herbicidal rating ([2]; 0.0320 kg/ha, preemergence): 0.0 | CYPIR herbicidal rating ([2]; 0.0620 kg/ha, preemergence): 2.0 | CYPIR herbicidal rating ([2]; 0.1250 kg/ha, preemergence): 3.0 | CYPIR herbicidal rating ([2]; 0.2500 kg/ha, preemergence): 3.0 | CYPSE herbicidal rating ([3]; 0.1250 kg/ha, preemergence): 0.0 | CYPSE herbicidal rating ([3]; 0.2500 kg/ha, preemergence): 0.0 | MOOVA herbicidal rating ([4]; 0.0320 kg/ha, preemergence): 3.0 | MOOVA herbicidal rating ([4]; 0.0620 kg/ha, preemergence): 4.0 | MOOVA herbicidal rating ([4]; 0.1250 kg/ha, preemergence): 4.0 | MOOVA herbicidal rating ([4]; 0.2500 kg/ha, preemergence): 4.0 | SAGPY herbicidal rating ([5]; 0.0320 kg/ha, preemergence): 0.0 | SAGPY herbicidal rating ([5]; 0.0620 kg/ha, preemergence): 0.0 | SAGPY herbicidal rating ([5]; 0.1250 kg/ha, preemergence): 3.0 | SAGPY herbicidal rating ([5]; 0.2500 kg/ha, preemergence): 3.0 | ORYSAT herbicidal rating (rice tolerance) ([6]; 0.0320 kg/ha): 4.0 | ORYSAT herbicidal rating (rice tolerance) ([6]; 0.0620 kg/ha): 4.0 | ORYSAT herbicidal rating (rice tolerance) ([6]; 0.1250 kg/ha): 4.0 | ORYSAT herbicidal rating (rice tolerance) ([6]; 0.2500 kg/ha): 5.0

Cn1c(C(F)(F)F)cc(=O)n(-c2ccc3snc(C(=O)OCCCO)c3c2)c1=O [Example 410, 1,2-Benzisothiazole-3-carboxylic acid, 5-[3,6-dihydro-3-methyl-2,6-dioxo-4-(trifluoromethyl)-1(2H)-pyrimidinyl]-, 3-hydroxypropyl ester]
ECHORC [1, 15]: 0.0 | ECHORC [1, 16]: 0.0 | ECHORC [1, 13]: 9.0 | ECHORC [1, 14]: 9.0 | CYPIR [2, 15]: 9.0 | CYPIR [2, 16]: 9.0 | CYPIR [2, 13]: 9.0 | CYPIR [2, 14]: 9.0 | CYPSE [3, 15]: 2.0 | CYPSE [3, 16]: 5.0 | CYPSE [3, 13]: 9.0 | CYPSE [3, 14]: 9.0 | MOOVA [4, 15]: 9.0 | MOOVA [4, 16]: 9.0 | MOOVA [4, 13]: 9.0 | MOOVA [4, 14]: 9.0 | SAGPY [5, 15]: 3.0 | SAGPY [5, 16]: 7.0 | SAGPY [5, 13]: 9.0 | SAGPY [5, 14]: 9.0 | ORYSAT ([6]; 0.0320 kg/ha): 0.0 | ORYSAT ([6]; 0.0620 kg/ha): 3.0 | ORYSAT ([6]; 0.1250 kg/ha): 5.0 | ORYSAT ([6]; 0.2500 kg/ha): 7.0
